The supplement of paper PMC13380429

Legend:
Conditions in all cases: 72 h
[1] = tested on: U2OS; assay: relative viability EC50 (midpoint between 100% and the lowest measured viability); higher = less toxic
[2] = tested on: Calu-3; assay: as above
[3] = tested on: HepG2; assay: as above
[4] = tested on: Caco-2; assay: as above
[5] = tested on: Vero E6; assay: as above
[6] = tested on: U2OS; assay: drug sensitivity score (DSS) for viability; higher = more toxic; extreme values may be limits of the assay
[7] = tested on: Calu-3; assay: as above
[8] = tested on: HepG2; assay: as above
[9] = tested on: Caco-2; assay: as above
[10] = tested on: Vero E6; assay: as above
[11] = tested on: U2OS; assay: cell viability relative to DMSO; higher = less toxic
[12] = tested on: Calu-3; assay: as above
[13] = tested on: HepG2; assay: as above
[14] = tested on: Caco-2; assay: as above
[15] = tested on: Vero E6; assay: as above

Structure (SMILES) | relative viability EC50 [1] | relative viability EC50 [2] | relative viability EC50 [3] | relative viability EC50 [4] | relative viability EC50 [5] | drug sensitivity score [6] | drug sensitivity score [7] | drug sensitivity score [8] | drug sensitivity score [9] | drug sensitivity score [10] | cell viability ([11]; 1 nM) | cell viability ([11]; 10 nM) | cell viability ([11]; 100 nM) | cell viability ([11]; 1000 nM) | cell viability ([11]; 10000 nM) | cell viability ([12]; 1 nM) | cell viability ([12]; 10 nM) | cell viability ([12]; 100 nM) | cell viability ([12]; 1000 nM) | cell viability ([12]; 10000 nM) | cell viability ([13]; 1 nM) | cell viability ([13]; 10 nM) | cell viability ([13]; 100 nM) | cell viability ([13]; 1000 nM) | cell viability ([13]; 10000 nM) | cell viability ([14]; 1 nM) | cell viability ([14]; 10 nM) | cell viability ([14]; 100 nM) | cell viability ([14]; 1000 nM) | cell viability ([14]; 10000 nM) | cell viability ([15]; 1 nM) | cell viability ([15]; 10 nM) | cell viability ([15]; 100 nM) | cell viability ([15]; 1000 nM) | cell viability ([15]; 10000 nM)
O=C(C[S+]([O-])Cc1ccco1)NC/C=C\COc1cc(CN2CCCCC2)ccn1 (configuration not stated) [lafutidine] | > 10 µM | > 10 µM | > 10 µM | > 10 µM | > 10 µM | 0 | 0 | 0 | 0 | 0 | 99.3% | 100% | 96.9% | 102% | 94.8% | 91.4% | 106% | 95.6% | 93.2% | 92.3% | 98.3% | 95.4% | 97.9% | 105% | 104% | 91.5% | 91.3% | 97.6% | 97% | 90.6% | 101% | 100% | 100% | 93.5% | 96.1%
C=CC(=O)Nc1cccc(Nc2nc(Nc3ccc(Oc4ccnc(C(=O)NC)c4)cc3)ncc2F)c1 [CNX-774] | 1.58 µM | > 10 µM | 2.15 µM | 2.07 µM | 2.14 µM | 6.2 | 0.4 | 5.2 | 5.5 | 5.6 | 92.4% | 111% | 98.3% | 83.9% | 32.9% | 92.8% | 102% | 99.6% | 96.3% | 86.6% | 98.6% | 104% | 110% | 91.4% | 31.8% | 98.7% | 105% | 103% | 90.4% | 30% | 98.1% | 98.1% | 103% | 90.7% | 26.9%
N[C@@H](CSS(=O)(=O)O)C(=O)O [S-sulfo-L-cysteine] | > 10 µM | > 10 µM | > 10 µM | > 10 µM | > 10 µM | 0 | 0 | 0 | 0 | 0 | 94.4% | 102% | 95% | 102% | 98.4% | 97.7% | 92.6% | 94.4% | 95.8% | 95.2% | 108% | 101% | 103% | 94.8% | 94.5% | 97.9% | 105% | 88.1% | 100% | 94.2% | 98.3% | 96.2% | 103% | 97.5% | 102%
CC[C@@H](C)N(C)C(=O)c1cc2ccccc2c(-c2ccccc2Cl)n1 | > 10 µM | > 10 µM | > 10 µM | > 10 µM | > 10 µM | 0 | 0 | 0 | 0 | 0 | 102% | 98.3% | 102% | 97.3% | 103% | 108% | 106% | 93.8% | 95.8% | 99.2% | 92.5% | 113% | 89.6% | 100% | 107% | 106% | 104% | 95.6% | 96.4% | 98.6% | 99.4% | 105% | 100% | 102% | 107%
CCCCOc1ccc(-c2cncc(C(=O)NCc3cccnc3N3CCOCC3)c2)cc1Cl | > 10 µM | > 10 µM | > 10 µM |  | > 10 µM | 0 | 0 | 0 | 0.8 | 0 | 104% | 103% | 99.5% | 106% | 92.8% | 107% | 96.4% | 92.9% | 104% | 90.4% | 99.7% | 93% | 113% | 106% | 106% | 92.8% | 104% | 94.7% | 102% | 74.8% | 102% | 102% | 100% | 96.5% | 94.4%
CCCCCCCCCCCCCCCC(=O)OC[C@H](COP(=O)([O-])OCC[N+](C)(C)C)OC(=O)CCCCCCCCCCCCCCC [colfosceril-palmitate] | > 10 µM | > 10 µM | > 10 µM |  | > 10 µM | 0 | 0.2 | 0 | 1.9 | 0 | 102% | 103% | 94.8% | 101% | 95.9% | 100% | 103% | 98.1% | 99.2% | 86.9% | 97.5% | 108% | 93.3% | 101% | 99.7% | 115% | 113% | 101% | 95.7% | 71.7% | 102% | 97.3% | 96.7% | 95.6% | 95.6%
CN1CCC[C@@H]1Cc1c[nH]c2ccc(CCS(=O)(=O)c3ccccc3)cc12 [eletriptan] | > 10 µM | > 10 µM | > 10 µM | > 10 µM |  | 0 | 0.1 | 0 | 0 |  | 98.6% | 104% | 94.6% | 104% | 96.3% | 88.5% | 102% | 97.8% | 95.2% | 87.3% | 103% | 99.6% | 96.7% | 95.6% | 97% | 96.5% | 98% | 104% | 105% | 96.1% |  |  |  |  | 
Cc1cc(C(=O)NOCCO)c(Nc2ccc(I)cc2F)n(C)c1=O [AZD8330] | 0.265 µM | 0.0118 µM | 0.0026 µM |  | 0.0072 µM | 13.3 | 24.3 | 35 | 12 | 19.2 | 93.1% | 94% | 86.2% | 37.3% | 28.3% | 78.8% | 69.5% | 44% | 29.3% | 25.7% | 78.2% | 34% | 24% | 20.1% | 18.4% | 86.1% | 83.3% | 70% | 62.1% | 66.3% | 89.5% | 72.1% | 52% | 47.7% | 49.2%
O=C(c1ccccn1)c1cnn2c(-c3ccncc3)ccnc12 [ocinaplon] | > 10 µM | > 10 µM | > 10 µM |  | > 10 µM | 0 | 0 | 0 |  | 0 | 94% | 103% | 99.2% | 102% | 99.2% | 98.7% | 93.6% | 104% | 95.7% | 107% | 108% | 98.7% | 107% | 93.5% | 95.1% |  |  |  |  |  | 104% | 99.2% | 100% | 102% | 102%
CC(C)c1nnc(-c2ccc(-c3ccccc3)nc2)n1-c1cccc2nonc12 [ASP-2535] |  | > 10 µM | > 10 µM | > 10 µM | > 10 µM |  | 0 | 0 | 0 | 0 |  |  |  |  |  | 103% | 92.2% | 103% | 93.3% | 103% | 104% | 106% | 107% | 107% | 88.7% | 104% | 99% | 96.4% | 95.5% | 96.2% | 98.8% | 102% | 97.8% | 102% | 92.9%
Cn1c(=O)c2[nH]c(Br)nc2n(C)c1=O [pamabrom] | > 10 µM | > 10 µM | > 10 µM | > 10 µM |  | 0 | 0 | 0 | 0 |  | 98.6% | 99.8% | 97.9% | 102% | 96.4% | 105% | 99.3% | 100% | 103% | 105% | 100% | 94.8% | 92.9% | 89.7% | 112% | 90.3% | 103% | 91% | 109% | 101% |  |  |  |  | 
NC(=O)c1cccnc1 [nicotinamide] |  | > 10 µM | > 10 µM | > 10 µM | > 10 µM |  | 0 | 0 | 0 | 0 |  |  |  |  |  | 107% | 114% | 120% | 110% | 94.1% | 114% | 103% | 101% | 101% | 90.2% | 100% | 107% | 94.9% | 99.2% | 101% | 107% | 108% | 102% | 104% | 99.5%
